Test results taken from patent publication US20190275049A1, “Combination of an EGFR T790M Inhibitor and a CDK Inhibitor for the Treatment of Non-Small Cell Lung Cancer” (PFIZER INC., priority 2016, published 2019).

How the values were obtained:
H1975 cell line [1] = test: H1975 duration of response study, T75 flask format; type: cell-based, human; conditions: for Time Elapsed: H1975, T75 flask, single agent: 100 nM palbociclib or 600 nM PF-06747775; for delay in time required to reach a specific total cell number compared to DMSO control (FIG. 1) / number of days for 5×10^5 cells to grow to 8×10^6 cells, Independent Experiment Number 1 / number of days for 5×10^5 cells to grow to 8×10^6 cells, Independent Experiment Number 2: H1975, PF-06747775 600 nM, palbociclib 100 nM, single agents or combination
Description: (§1) This experimental approach provides a model of DOR and a means for testing whether combination regimens can increase or extend DOR (Tricker E M, Xu C, Uddin S, et al. Combined EGFR/MEK Inhibition Prevents the Emergence of Resistance in EGFR-Mutant Lung Cancer. Cancer Discov 2015; 5(9):960-71). […] Two different assay formats were used to facilitate quantitative assessment of time to regrowth and to address reproducibility in orthogonal formats.
H1975 cells were seeded (5×10^5 cells per flask) in T75 flasks (one or two flasks per treatment condition). […] Time was monitored. When growth reached 70-90% confluence, the cells were harvested, counted, and half of the collected cells were used to seed a fresh T75 flask. Once growth reached 70-90% confluence again, this process was repeated, then repeated again and again until a constant growth rate was achieved. Results were plotted as total live cells counted over time, for example, at each harvest, the cell number counted at that harvest was added to previous cell count numbers, then plotted as total live cells at that time point.

H1975 cell line [2] = test: H1975 duration of response study, 96-well plate format; type: cell-based, human; conditions: PF-06747775 600 nM, palbociclib 100 nM, single agents or combination
Source text: as §1
A 96-well plate format assay was adapted from a published report (Tricker, E., et al., “Combined EGFR/MEK Inhibition Prevents the Emergence of Resistance in EGFR-Mutant Lung Cancer,” Cancer Discovery, 2015, 960-971, vol. 5, no. 9). […] Time was monitored. […] Non-terminal reading of live cells was conducted weekly using an IncuCyte instrument (microscopy-based cell counting, Essen Bioscience, Ann Arbor, Mich., USA). At selected time points throughout the treatment duration, a terminal reading of live cells by Cell Titer Glow method (cell ATP-based counting, Promega, Madison, Wis., USA) was used to confirm cell counts over time and at the end of study. Results were plotted as percent of wells reaching a designated confluency (e.g. 50% confluent) at different time points throughout the treatment period.

PC9 cell line = test: PC9 duration of response study, T75 flask format; type: cell-based, human; conditions: method of Example 2 (PF-06747775 600 nM, palbociclib 100 nM)
HCC827 cell line = test: HCC827 duration of response study, T75 flask format; type: cell-based, human; conditions: method of Example 2 (PF-06747775 600 nM, palbociclib 100 nM)
HCC4006 cell line = test: HCC4006 duration of response study, T75 flask format; type: cell-based, human; conditions: method of Example 2 (PF-06747775 600 nM, palbociclib 100 nM)
H1975 xenograft tumors = test: H1975 xenograft model, tumor growth inhibition; type: in vivo, nude/nude (nu/nu) female mice; conditions: oral, daily
Source text: Four- to six-week-old nude/nude (nu/nu) female mice were obtained from Charles River Laboratories (Hollister, Calif., USA) and maintained in pressurized ventilated caging at the Pfizer La Jolla animal facility. All studies were approved by Pfizer Institutional Animal Care and Use Committees. Xenograft tumors were established by subcutaneously implanting 5×10^6 H1975 cells suspended 1:1 (v/v) with reconstituted basement membrane (Matrigel, BD Biosciences) in nu/nu mice. […] Tumor dimensions were measured with vernier calipers and tumor volumes were calculated using the formula of π/6×larger diameter x (smaller diameter)^2. […] Tumor regression percentage was calculated as 100×(1−ΔT/starting tumor size).

[3] = Plasma drug levels in H1975 xenograft study (blood samples day 15)
Description: Drugs were formulated once per in vivo experiment and were dosed daily at a concentration of 10 mL/kg through oral gavage.

Cytochrome P-450 3A4 = conditions: in vivo; cited from earlier work

Row | Structure (SMILES) | Time Elapsed (H1975 cell line [1]) [days] | delay in time required to reach a specific total cell number compared to DMSO control (FIG. 1) (H1975 cell line [1]) | number of days for 5×10^5 cells to grow to 8×10^6 cells, Independent Experiment Number 1 (H1975 cell line [1]) [days] | number of days for 5×10^5 cells to grow to 8×10^6 cells, Independent Experiment Number 2 (H1975 cell line [1]) [days] | number of days for 350 cells per well to grow to 50% of the wells reaching 50% confluence, Independent Experiment Number 1 (H1975 cell line [2]) [days] | number of days for 350 cells per well to grow to 50% of the wells reaching 50% confluence, Independent Experiment Number 2 (H1975 cell line [2]) [days] | PC9 Time elapsed (days) for 5×10^5 cells to grow to 8×10^6 cells (PC9 cell line) [days] | HCC827 (independent experiment) Number 1 (days) for 5×10^5 cells to grow to 8×10^6 cells (HCC827 cell line) [days] | HCC827 (independent experiment) Number 2 (days) for 5×10^5 cells to grow to 8×10^6 cells (HCC827 cell line) [days] | HCC4006 Time elapsed (days) for 5×10^5 cells to grow to 8×10^6 cells (HCC4006 cell line) [days] | effect on tumor growth inhibition (TGI) (FIG. 2) (H1975 xenograft tumors; palbociclib single agent, 70 mpk) | effect on tumor growth inhibition (TGI) (FIG. 2) (H1975 xenograft tumors; palbociclib single agent, lower doses (22 mpk and 7 mpk)) | Plasma Average Free Drug Concentration Over the 24 hour Dosing Interval, Palbociclib ([3]; Palbo 7 mpk alone) [nM] | Plasma Average Free Drug Concentration Over the 24 hour Dosing Interval, Palbociclib ([3]; Palbo 22 mpk alone) [nM] | Plasma Average Free Drug Concentration Over the 24 hour Dosing Interval, Palbociclib ([3]; Palbo 70 mpk alone) [nM] | anti-tumor efficacy of single agent after 10 days of dosing (H1975 xenograft tumors; PF-06747775 10 mpk, 10 days) | effect on tumor growth inhibition (TGI) (FIG. 2) (H1975 xenograft tumors; PF-06747775 single agent, 10/20 mpk (20 mpk from day 11)) | metabolism by Cytochrome P-450 3A4 (Cytochrome P-450 3A4) | Plasma Average Free Drug Concentration Over the 24 hour Dosing Interval, PF-06747775 ([3]; PF-06747775 10/20 mpk alone) [nM]
1 | CC(=O)c1c(C)c2cnc(Nc3ccc(N4CCNCC4)cn3)nc2n(C2CCCC2)c1=O [palbociclib, 6-acetyl-8-cyclopentyl-5-methyl-2-(5-piperazin-1-yl-pyridin-2-ylamino)-8H-pyrido[2,3-d]pyrimidin-7-one] | 5 | slight delay, if any | 4 | 5 | 7 | 7 | 5 | 11 | 11 | 18 | minor effect | no effect | 6 | 45 | 127 | – | – | – | –
2 | C=CC(=O)N[C@@H]1CN(c2nc(Nc3cn(C)nc3OC)c3ncn(C)c3n2)C[C@H]1F [PF-06747775, N-((3R,4R)-4-fluoro-1-(6-((3-methoxy-1-methyl-1H-pyrazol-4-yl)amino)-9-methyl-9H-purin-2-yl)pyrrolidin-3-yl)acrylamide] | 21 | significant delay | 15 | 21 | 16 | 19 | 73 | – | – | 51 | – | – | – | – | – | less than the desired comparator level | moderate effect | metabolized in vivo by this same enzyme | 95
